Measured values published in article PMC12107103, “MTA-cooperative PRMT5 inhibitors from cofactor-directed DNA-encoded library screens” (Proceedings of the National Academy of Sciences of the …, 2025).

Columns and labels:
[1] = tested on: Parental HCT116 cells (MTAP WT); assay: Cell viability (CellTiter-Glo), parental cells; type: cell-based; conditions: Homo sapiens, read-out: IC50, cell viability
Procedure: (§1) Parental (HD PAR-034) and MTAP^−^/^− (HD R02-033) colorectal cancer HCT116 cell lines were obtained from Horizon Discovery and maintained in RPMI1640 supplemented with 10% fetal bovine serum and antibiotics or in McCoy 5A supplemented with 10% fetal bovine serum (for mouse experiments). Other cell lines were obtained from ATCC and maintained according to instructions. Effects of compounds on cell viability were assessed using the CellTiter-Glo Kit from Promega (G7571) after 6 d of compound incubation and quantified using an EnVision® 2105 multimode plate reader (PerkinElmer) in luminescence mode.

[2] = tested on: MTAP-deleted HCT116 cells; assay: SDMA high-content imaging assay, MTAP-deleted cells; type: cell-based; conditions: Homo sapiens, HCT-116, 72 h, read-out: IC50, reduction of cellular SDMA
Procedure: (§2) Cells were seeded into 96-well plates and incubated with compound for 3 d before fixing with 4% PFA (in 1× PBS) for 15 min. Cells were then washed once with Wash Buffer (1× PBS + 1% BSA + 0.2% Triton X-100), 100 µL/well for 15 min before blocking for 1 h Using Licor Odyssey blocking reagent ([…]) (100 µL/well). After three washes in Wash Buffer, cells were then stained for 2 h with anti-SDMA antibody (1:2,000 in Wash Buffer), washed three times in Wash Buffer, stained for 1 h in the dark using anti-rabbit Alexa-488 (1:2,000 in Wash Buffer) and Hoechst 33342 (1:5,000), followed by three washes in Wash Buffer before quantifying on a Cellomics Array Scan image system.

HCT116 MTAP WT tumors = assay: Contralateral tumor model, tumor SDMA ELISA, WT tumors; type: in vivo, mouse; conditions: parental (MTAP WT) tumors, daily for 4 d
Procedure: (§3) Mice were implanted contralaterally on their flanks with parental and MTAP-deleted HCT116 cells such that each mouse would carry one WT and one MTAP-deleted tumor (Fig. 4A). This design eliminates variance in compound exposures between groups and allows direct assessment of MTAP status impact on compound effects. […] Four hours post the fourth dose, tumors were analyzed for SDMA content by ELISA. […] This confirms the MTA-selective action of AM-9934 in the tumor setting.
(§4) HCT116 colon carcinoma WT and MTAP^−^/^− isogenic cells were determined to be free of contamination with mycoplasma as well as a panel of murine viral pathogens in addition to being authenticated. Mice were inoculated s.c. with 2 × 10^6 HCT116 WT cells on the left flank and 2 × 10^6 HCT116 MTAP^−^/^− cells on the right flank in 33% Matrigel. Mice were enrolled once both tumors reached 250 to 500 mm^3 and randomized into vehicle vs. PRMT5i treated groups (N = 3). Vehicle or PRMT5i treatment started on day 14 postimplantation orally and treated once daily for 4 d. […]
(§5) Preparation of protein lysates from snap-frozen tumors was carried out as follows: samples were collected in a Covaris Tissue Tube (520001 TT1) to be used in conjunction with the CryoPrep. […] The protein concentration of each lysate was then determined using a BCA assay. […]

PRMT5:MEP50 complex = biological target: T1, PRMT5:MEP50 complex (Homo sapiens, UniProt O14744); assay: Thermal Stability Assay (TSA), thermal shift; type: binding; conditions: for stabilization of the complex by cofactor alone: cofactor added to apo complex (10 µM SIN, 10 µM SAM, or 5 µM MTA)
T1 construct: FLAG (N); purchased Reaction Biology Corp HMT-2-148; host or cells: insect cells (baculovirus)
T1 sequence (O14744 2-637 limits assumed): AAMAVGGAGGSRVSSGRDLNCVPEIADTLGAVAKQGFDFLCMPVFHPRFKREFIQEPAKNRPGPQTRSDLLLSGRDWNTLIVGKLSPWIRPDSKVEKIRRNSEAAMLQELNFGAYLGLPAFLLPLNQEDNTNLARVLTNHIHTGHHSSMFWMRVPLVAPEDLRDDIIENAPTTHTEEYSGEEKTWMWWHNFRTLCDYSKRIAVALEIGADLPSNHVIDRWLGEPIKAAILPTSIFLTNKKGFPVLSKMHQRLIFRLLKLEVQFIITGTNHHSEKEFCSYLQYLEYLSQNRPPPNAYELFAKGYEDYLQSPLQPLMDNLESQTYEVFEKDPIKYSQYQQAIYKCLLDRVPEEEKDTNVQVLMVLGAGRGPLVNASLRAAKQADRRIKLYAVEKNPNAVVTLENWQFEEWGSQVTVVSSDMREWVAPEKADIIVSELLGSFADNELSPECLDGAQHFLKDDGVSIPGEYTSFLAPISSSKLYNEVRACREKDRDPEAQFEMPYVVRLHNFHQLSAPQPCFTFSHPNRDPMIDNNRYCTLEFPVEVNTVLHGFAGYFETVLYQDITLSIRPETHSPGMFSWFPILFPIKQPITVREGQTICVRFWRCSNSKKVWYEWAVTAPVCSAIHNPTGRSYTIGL
T1 sequence (Q9BQA1 2-342 partner limits assumed): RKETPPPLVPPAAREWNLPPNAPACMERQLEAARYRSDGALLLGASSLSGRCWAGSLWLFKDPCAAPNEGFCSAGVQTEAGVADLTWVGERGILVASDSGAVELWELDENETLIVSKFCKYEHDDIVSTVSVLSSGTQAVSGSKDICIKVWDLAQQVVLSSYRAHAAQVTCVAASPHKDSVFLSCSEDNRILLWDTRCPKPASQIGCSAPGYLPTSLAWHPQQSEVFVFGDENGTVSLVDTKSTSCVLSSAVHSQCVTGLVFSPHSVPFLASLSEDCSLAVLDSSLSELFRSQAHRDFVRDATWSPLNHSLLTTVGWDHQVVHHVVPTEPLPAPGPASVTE
Procedure: 0.1 µM PRMT5:MEP50 complex was incubated with compounds in a buffer consisting of 50 mM Tris-HCl pH 8.0, 50 mM NaCl, 1 mM TCEP, and 4xSypro Orange (Thermo Fisher, S-6650) in the absence or presence of cofactor (10 µM SIN, 10 µM SAM, or 5 µM MTA) and read on a StepOne™ Real-Time PCR machine (Applied Biosystems™) using a temperature ramp of 0.5 °C/min over a range of 25 to 95 °C.

[3] = tested on: arginine-, lysine-, and DNA-methyltransferases; assay: Methyltransferase panel profiling (BPS Bioscience): other methyltransferases; conditions: tested up to 10 µM
in vitro = conditions: human, primary bone marrow-derived megakaryocytes
[4] = Blood/tumor compound concentrations in contralateral tumor model; type: in vivo, mouse; conditions: 4 h post last dose, 50-200 mg/kg
Procedure: HCT116 colon carcinoma WT and MTAP^−^/^− isogenic cells were determined to be free of contamination with mycoplasma as well as a panel of murine viral pathogens in addition to being authenticated. Mice were inoculated s.c. with 2 × 10^6 HCT116 WT cells on the left flank and 2 × 10^6 HCT116 MTAP^−^/^− cells on the right flank in 33% Matrigel. Mice were enrolled once both tumors reached 250 to 500 mm^3 and randomized into vehicle vs. PRMT5i treated groups (N = 3). Vehicle or PRMT5i treatment started on day 14 postimplantation orally and treated once daily for 4 d. Blood was collected at 4 h post–last dose (day 17 postimplantation) for pharmacokinetic analysis in Microtainer tubes containing lithium heparin. Blood was centrifuged at 7,000 rpm at 4 °C for 7 min. Tumors from both sides were also collected and snap-frozen for pharmacokinetic analysis and SDMA ELISA. Plasma and tumors were collected and stored at −80 °C until analysis.

[5] = tested on: Parental HCT116 cells (MTAP WT); assay: SDMA high-content imaging assay, parental cells; type: cell-based; conditions: Homo sapiens, HCT-116, 72 h, read-out: IC50, reduction of cellular SDMA
Procedure: as §2

HCT116 MTAP Null tumors = assay: Contralateral tumor model, tumor SDMA ELISA, MTAP-deleted tumors; type: in vivo, mouse; conditions: daily for 4 d
Procedure: as §3, §4, §5

[6] = tested on: 24-cell line panel of MTAP WT and MTAP-deleted cell lines; assay: Cell viability across 24-cell line panel; type: cell-based; conditions: MTAP WT vs MTAP-deleted
Procedure: as §1

[7] = tested on: MTAP-deleted HCT116 cells; assay: Cell viability (CellTiter-Glo), MTAP-deleted cells; type: cell-based; conditions: Homo sapiens, read-out: IC50, cell viability
Procedure: as §1

MTAP null tumors = tested on: MTAP null tumors; set-up: method as in PMID 39282709; conditions: patients with MTAP null tumors; cited from earlier work

Compound: Cc1cc2cc(C(=O)N(Cc3ccc(C(F)(F)F)cn3)CC(C)C)ccc2nc1N [AM-9934]
- IC50 ([1]; HCT-116, […]): 4.1 µM
- IC50 [2]: 0.0092 µM
- suppression of tumor SDMA levels (in words) (HCT116 MTAP WT tumors): insignificant at lower doses
- stabilization in the presence of MTA (PRMT5:MEP50 complex; MTA-bound complex, compound 0.1 µM): 9.3 K
- inhibitory activity toward the other tested methyltransferases [3]: No significant inhibitory activity
- IC50 (in vitro): 3.1 µM
- exposures (blood/tumor compound concentrations) [4]: exposures increased with dose
- IC50 [5]: 0.143 µM
- suppression of tumor SDMA levels (in words) (HCT116 MTAP Null tumors): all three doses reached significant levels of SDMA suppression
- discrimination of viability potency by MTAP status [6]: significantly higher potency toward MTAP-deleted cell lines
- IC50 ([7]; HCT-116, […]): 0.16 µM

Compound: Nc1nc2cnc(C(=O)N3CCOC[C@@H]3c3ccc(C(F)(F)F)cc3)cc2c2c1COC2 [AMG 193]
- antitumor responses in patients (MTAP null tumors): initial antitumor responses

Compound: O=C(NC[C@H](O)CN1CCc2ccccc2C1)c1cc(NC2COC2)ncn1 [EPZ015666]
- IC50 ([1]; HCT-116, parental HCT116, 6 d incubation): 0.89 µM
- IC50 ([2]; MTAP-deleted HCT116, 3 d incubation): 0.0043 µM
- stabilization of the MTA-bound complex (PRMT5:MEP50 complex; MTA-bound complex, compound 10 µM): no stabilization
- stabilization of the SAM-bound complex (PRMT5:MEP50 complex; SAM-bound complex, compound 10 µM): showed an interaction
- stabilization of the SIN-bound complex (PRMT5:MEP50 complex; SIN-bound complex, compound 10 µM): showed an interaction
- IC50 (in vitro): 0.36 µM
- IC50 ([5]; parental HCT116, 3 d incubation): 0.0096 µM
- discrimination of viability potency by MTAP status [6]: did not significantly discriminate
- IC50 ([7]; HCT-116, MTAP-deleted HCT116, 6 d incubation): 0.6 µM

Compound: CC(=O)N1CCC(Nc2cc(C(=O)NC[C@H](O)CN3CCc4ccccc4C3)ncn2)CC1 [GSK3326595]
- suppression of tumor SDMA levels (in words) (HCT116 MTAP WT tumors): marked suppression
- suppression of tumor SDMA levels (in words) (HCT116 MTAP Null tumors): marked suppression

Compound: CSC[C@H]1O[C@@H](n2cnc3c(N)ncnc32)[C@H](O)[C@@H]1O [MTA, methylthioadenosine]
- stabilization of the complex by cofactor alone (PRMT5:MEP50 complex): < 0.5 K

Compound: C[S+](CC[C@H](N)C(=O)[O-])C[C@H]1O[C@@H](n2cnc3c(N)ncnc32)[C@H](O)[C@@H]1O (some centres unmarked) [SAM, S-Adenosyl methionine]
- stabilization of the complex by cofactor alone (PRMT5:MEP50 complex): < 0.5 K

Compound: Nc1ncnc2c1ncn2[C@@H]1O[C@H](C[C@@H](N)CC[C@H](N)C(=O)O)[C@@H](O)[C@H]1O [SIN, sinefungin]
- stabilization of the complex by cofactor alone (PRMT5:MEP50 complex): < 0.5 K
